# How the values were obtained:
# AZD1775 = compound: C=CCn1c(=O)c2cnc(Nc3ccc(N4CCN(C)CC4)cc3)nc2n1-c1cccc(C(C)(C)O)n1 [AZD1775]
# Cediranib/AZD2171 = compound: COc1cc2c(Oc3ccc4[nH]c(C)cc4c3F)ncnc2cc1OCCCN1CCCC1 [Cediranib/AZD2171]
# Saracatinib/AZD0530 = compound: CN1CCN(CCOc2cc(OC3CCOCC3)c3c(Nc4c(Cl)ccc5c4OCO5)ncnc3c2)CC1 [Saracatinib/AZD0530]
# [1] = compound: CCCCOc1c(C(=O)c2c(F)cc(C)cc2F)c[nH]c2nncc1-2
# Alpelisib/BYL719 = compound: Cc1nc(NC(=O)N2CCC[C@H]2C(N)=O)sc1-c1ccnc(C(C)(C)C(F)(F)F)c1 [Alpelisib/BYL719]
# [2] = compound: CC(=O)Nc1cccc(-n2c(=O)n(C3CC3)c(=O)c3c(Nc4ccc(I)cc4F)n(C)c(=O)c(C)c32)c1
# [3] = compound: COc1ccc2c(c1)[C@]1(C[C@H]1c1ccc3c(/C=C/c4ccc(CN5C[C@@H](C)O[C@@H](C)C5)cc4)n[nH]c3c1)C(=O)N2
# BVD523 = compound: CC(C)Nc1cc(-c2c[nH]c(C(=O)N[C@H](CO)c3cccc(Cl)c3)c2)c(Cl)cn1 [BVD523]
# [4] = compound: CO[C@@H](C)Cn1c(=O)n(C)c2cnc3ccc(-c4cncc(C(C)(C)O)c4)cc3c21
# THZ1 [5] = compound: T1, CN(C)C/C=C/C(=O)Nc1ccc(C(=O)Nc2cccc(Nc3ncc(Cl)c(-c4c[nH]c5ccccc45)n3)c2)cc1 [THZ1]
# THZ531 [6] = compound: T2, CN(C)C/C=C/C(=O)Nc1ccc(C(=O)N2CCC[C@@H](Nc3ncc(Cl)c(-c4c[nH]c5ccccc45)n3)C2)cc1 [THZ531]
# Rucaparib = compound: CNCc1ccc(-c2[nH]c3cc(F)cc4c3c2CCNC4=O)cc1 [Rucaparib]
# LEE011/Ribociclib = compound: CN(C)C(=O)c1cc2cnc(Nc3ccc(N4CCNCC4)cn3)nc2n1C1CCCC1 [LEE011/Ribociclib]; assay: increase in dead-cell fraction, 72 h; higher = more death;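 further: breast cancer cell lines in 384-well plates, stained with Hoechst plus LIVE/DEAD far red dye and imaged, cells above an LDR intensity threshold counted dead, Hoechst-negative corpses included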
# BSJ-03-123 = compound: CC(=O)c1c(C)c2cnc(Nc3ccc(N4CCN(CCOCCOCCOCCNC(=O)COc5cccc6c5C(=O)N(C5CCC(=O)NC5=O)C6=O)CC4)cn3)nc2n(C2CCCC2)c1=O [BSJ-03-123]; assay: as above
# [7] = compound: CCc1cnn2c(NCc3ccc[n+]([O-])c3)cc(N3CCCC[C@H]3CCO)nc12; assay: as above
# [8] = compound: CC(=O)c1c(C)c2cnc(Nc3ccc(N4CCNCC4)cn3)nc2n(C2CCCC2)c1=O; assay: as above
# YKL-5-124 = compound: C=CC(=O)Nc1ccc(C(=O)Nc2[nH]nc3c2CN(C(=O)N[C@H](CN(C)C)c2ccccc2)C3(C)C)cc1 [YKL-5-124]; assay: as above
# THZ1 [9] = compound: T1, THZ1; assay: as above
# THZ531 [10] = compound: T2, THZ531; assay: as above
# Neratinib/HKI272 = compound: CCOc1cc2ncc(C#N)c(Nc3ccc(OCc4ccccn4)c(Cl)c3)c2cc1NC(=O)/C=C/CN(C)C [Neratinib/HKI272]; assay: as above
# 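Wherever GR50, 72 h is given: breast cancer and non-malignant breast epithelial cell lines, Deep Dye Drop or Dye Drop imaging, nine half-log doses, GR normalized to time-zero plates and DMSO-only controls.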
cell line,measurement,setting,value
SUM149,"GR50, 72 h",AZD1775,0.0722 µM
same,"GR50, 72 h",Cediranib/AZD2171,5.18 µM
same,"GR50, 72 h",Saracatinib/AZD0530,2.49 µM
same,"GR50, 72 h",[1],0.0163 µM
same,"GR50, 72 h",Alpelisib/BYL719,> 10 µM
same,"GR50, 72 h",[2],0.0112 µM
same,"GR50, 72 h",[3],0.00332 µM
same,"GR50, 72 h",BVD523,1.96 µM
same,"GR50, 72 h",[4],1.55 µM
same,"GR50, 72 h",THZ1 [5],0.0493 µM
same,"GR50, 72 h",THZ531 [6],0.345 µM
same,"GR50, 72 h",Rucaparib,> 10 µM
same,increase in dead-cell fraction,LEE011/Ribociclib; 0.001 µM,-0.0066
same,increase in dead-cell fraction,LEE011/Ribociclib; 0.003162 µM,-0.0033
same,increase in dead-cell fraction,LEE011/Ribociclib; 0.01 µM,0.001
same,increase in dead-cell fraction,LEE011/Ribociclib; 0.03162 µM,-0.0061
same,increase in dead-cell fraction,LEE011/Ribociclib; 0.1 µM,-0.0037
same,increase in dead-cell fraction,LEE011/Ribociclib; 0.3162 µM,0.0068
same,increase in dead-cell fraction,LEE011/Ribociclib; 1 µM,0.0043
same,increase in dead-cell fraction,LEE011/Ribociclib; 3.162 µM,0.0014
same,increase in dead-cell fraction,LEE011/Ribociclib; 10 µM,0.0135
same,increase in dead-cell fraction,BSJ-03-123; 0.001 µM,-0.0068
same,increase in dead-cell fraction,BSJ-03-123; 0.003162 µM,-0.0064
same,increase in dead-cell fraction,BSJ-03-123; 0.01 µM,-0.0053
same,increase in dead-cell fraction,BSJ-03-123; 0.03162 µM,0.0051
same,increase in dead-cell fraction,BSJ-03-123; 0.1 µM,0.0006
same,increase in dead-cell fraction,BSJ-03-123; 0.3162 µM,-0.0032
same,increase in dead-cell fraction,BSJ-03-123; 1 µM,0.0245
same,increase in dead-cell fraction,BSJ-03-123; 3.162 µM,0.0364
same,increase in dead-cell fraction,BSJ-03-123; 10 µM,0.217
same,increase in dead-cell fraction,[7]; 0.0001 µM,-0.0003
same,increase in dead-cell fraction,[7]; 0.0003162 µM,-0.0062
same,increase in dead-cell fraction,[7]; 0.001 µM,0.0017
same,increase in dead-cell fraction,[7]; 0.003162 µM,0.0022
same,increase in dead-cell fraction,[7]; 0.01 µM,0.021
same,increase in dead-cell fraction,[7]; 0.03162 µM,0.756
same,increase in dead-cell fraction,[7]; 0.1 µM,0.832
same,increase in dead-cell fraction,[7]; 0.3162 µM,0.831
same,increase in dead-cell fraction,[7]; 1 µM,0.814
same,increase in dead-cell fraction,[8]; 0.0003162 µM,0.0026
same,increase in dead-cell fraction,[8]; 0.001 µM,0.0019
same,increase in dead-cell fraction,[8]; 0.003162 µM,0.0012
same,increase in dead-cell fraction,[8]; 0.01 µM,-0.0029
same,increase in dead-cell fraction,[8]; 0.03162 µM,-0.003
same,increase in dead-cell fraction,[8]; 0.1 µM,0.0002
same,increase in dead-cell fraction,[8]; 0.3162 µM,-0.0014
same,increase in dead-cell fraction,[8]; 1 µM,-0.0001
same,increase in dead-cell fraction,[8]; 3.162 µM,0.0028
same,increase in dead-cell fraction,YKL-5-124; 0.001 µM,0.0758
same,increase in dead-cell fraction,YKL-5-124; 0.003162 µM,0.1
same,increase in dead-cell fraction,YKL-5-124; 0.01 µM,0.103
same,increase in dead-cell fraction,YKL-5-124; 0.03162 µM,0.0843
same,increase in dead-cell fraction,YKL-5-124; 0.1 µM,0.124
same,increase in dead-cell fraction,YKL-5-124; 0.3162 µM,0.124
same,increase in dead-cell fraction,YKL-5-124; 1 µM,0.0859
same,increase in dead-cell fraction,YKL-5-124; 3.162 µM,0.172
same,increase in dead-cell fraction,YKL-5-124; 10 µM,0.199
same,increase in dead-cell fraction,THZ1 [9]; 0.0001 µM,-0.0005
same,increase in dead-cell fraction,THZ1 [9]; 0.0003162 µM,-0.0052
same,increase in dead-cell fraction,THZ1 [9]; 0.001 µM,-0.0029
same,increase in dead-cell fraction,THZ1 [9]; 0.003162 µM,0.0113
same,increase in dead-cell fraction,THZ1 [9]; 0.01 µM,-0.0015
same,increase in dead-cell fraction,THZ1 [9]; 0.03162 µM,0.0274
same,increase in dead-cell fraction,THZ1 [9]; 0.1 µM,0.083
same,increase in dead-cell fraction,THZ1 [9]; 0.3162 µM,0.445
same,increase in dead-cell fraction,THZ1 [9]; 1 µM,0.589
same,increase in dead-cell fraction,THZ531 [10]; 0.0001 µM,0.0045
same,increase in dead-cell fraction,THZ531 [10]; 0.0003162 µM,-0.0031
same,increase in dead-cell fraction,THZ531 [10]; 0.001 µM,0
same,increase in dead-cell fraction,THZ531 [10]; 0.003162 µM,-0.0086
same,increase in dead-cell fraction,THZ531 [10]; 0.01 µM,-0.0054
same,increase in dead-cell fraction,THZ531 [10]; 0.03162 µM,0.0002
same,increase in dead-cell fraction,THZ531 [10]; 0.1 µM,0.0001
same,increase in dead-cell fraction,THZ531 [10]; 0.3162 µM,0.0691
same,increase in dead-cell fraction,THZ531 [10]; 1 µM,0.58
same,increase in dead-cell fraction,Neratinib/HKI272; 0.0003162 µM,-0.0005
same,increase in dead-cell fraction,Neratinib/HKI272; 0.001 µM,-0.0026
same,increase in dead-cell fraction,Neratinib/HKI272; 0.003162 µM,-0.0047
same,increase in dead-cell fraction,Neratinib/HKI272; 0.01 µM,-0.0034
same,increase in dead-cell fraction,Neratinib/HKI272; 0.03162 µM,0.001
same,increase in dead-cell fraction,Neratinib/HKI272; 0.1 µM,0.0172
same,increase in dead-cell fraction,Neratinib/HKI272; 0.3162 µM,0.0405
same,increase in dead-cell fraction,Neratinib/HKI272; 1 µM,0.0409
same,increase in dead-cell fraction,Neratinib/HKI272; 3.162 µM,0.0594

# — the supplement of paper PMC9663587
